Experiments:
Type in all cases: physicochemical
[1] = Dynamic vapor sorption (DVS) hygroscopicity; conditions: 25° C.
Method: DVS measurements were performed with a SMS—DVS Intrinsic. The sample size was about 50 mg, accurately weighed. The measurement was performed at 25° C., the relative humidity (RH) range investigated was 40-90-0-90% RH with 10% RH steps. After each RH change, the mass of the sample was allowed to stabilize (waiting time 10 to 60 minutes, stabilization criterion ≤0.002 g for 10 minutes). The hygroscopicity of the sample was calculated as follows: [formula] • where: • W1: weight of sample at the start of the experiment (25° C. and 40% RH) • W2: weight of sample at 25° C. and 80% RH in the first sorption cycle High Pressure Liquid Chromatography (HPLC)

[2] = Intrinsic dissolution, USP rotating disk apparatus
Method: For the intrinsic dissolution studies, the following HPLC method was used: [table] Intrinsic dissolution profiles of NaCDC Form A and Form B were determined from a drug disk of constant surface area using a USP rotating disk apparatus in phosphate buffer (pH 7.4) at 37° C. […] A typical apparatus consisted of a punch and a die, whose base is attached to a surface plate. […] The punch was then inserted in the die cavity and the test material was compressed with a hydraulic press. A non-disintegrating compact of the material was formed in the die cavity with a single face of defined area exposed on the bottom of the die. The die assembly was then attached to a shaft with a holder and the surface plate was removed. The shaft holding the die assembly was positioned into the dissolution medium at a distance not less than 1.0 cm from the bottom of the vessel. In this procedure, fluid flow was generated by the rotation of the die. The amount of material dissolved was measured as a function of time. In particular, the cumulative amount dissolved at each time point was corrected for losses due to sampling. […] Method parameters are summarized below: [table]

[3] = Exposure to moist air (RH 95%, room temperature), XRPD before/after; conditions: 15-20 hours at 95% humidity
Method: FIG. 4 is a series of XRPD patterns, showing NaCDC Form A before (thick line) and after (thin line) 15 hours of exposure to RH 95% at room temperature. FIG. 8 is a series of XRPD patterns, showing NaCDC Form B before (thick line) and after (thin line) 15 hours of exposure to RH 95% at room temperature.

[4] = Storage of screening solids at RT, XRPD after storage
Method: Form S2 was obtained from experiment VDS05 with EtOH after 12 days of diffusion at 50° C. […] The HPLC purity of the tested material was 92.1% at 212 nm. TG/DSC analysis of this material was consistent with that obtained from experiments SAS48, SDGR01, and SDGR07. XRPD analysis of this material is shown in FIG. 33, and the corresponding data summarized in Table S2: Form S8 was obtained in mixture with starting material ([…]) from experiment VDS12 with MEK after 12 days of diffusion at 50° C. […] The HPLC purity of the tested material was 93.7% at 212 nm. An XRPD spectrum of the material from experiment VDS12 is shown in FIG. 34A, as compared to NaCDC Form B, and the corresponding data are summarized in Table S8: The precipitate that formed in the water solution in the presence of acetone (as anti-solvent) was stored at RT for up to 3 weeks before it was subjected to thermal analysis. In this case, the majority of ASDS03 solid was dried at RT on filter paper up to 2 h and after that the recovered material was analyzed by XRPD. […] (Tonset) was observed. […] The precipitates that formed in the water solution in the presence of acetonitrile (as anti-solvent) from experiments ASDS04 and ASDS08 were stored at RT up to 24 days before being subjected to thermal analysis. In this case, the majority of solids from experiments ASDS04 and ASDS08 were dried at RT on filter paper for 1-2 h, and after that the recovered materials were analyzed by XRPD. […] The corresponding data for the initial material obtained from experiment […]) are summarized below: The precipitate that formed into the TFE solution in the presence of MTBE (as anti-solvent) was stored at RT for 22 days before being subjected to thermal analysis. In this case, the majority of the material from experiment ASDS19 was dried at RT on filter paper up to 2 h, and after that the recovered material was analyzed by XRPD. […] Considering that Form S12 was obtained as mixture with amorphous phase and with low crystallinity, there is a possibility that Form S12 is the same as Form S15. The XRPD data from experiment ASDS19 before storage for 22 days is summarized in Table S12, and the XRPD data from experiment ASDS19 after storage for 22 days is summarized in Table S15. The precipitate that formed into the TFE solution in the presence of DIPE (as anti-solvent) was stored at RT for 22 days before being subjected to thermal analysis. In this case, the majority of material obtained from experiment ASDS16 was dried at RT on filter paper up to 2 h, and after that, the recovered material was analyzed by XRPD. […] The precipitate that formed into the water solution in the presence of acetone (as anti-solvent) was stored at RT for 2 weeks before being subjected to thermal analysis. In this case, the majority of material obtained from experiment RAS11 was dried at RT on filter paper for 1-2 h, and after that the recovered material was analyzed by XRPD. […] The precipitate that formed into the TFE solution in the presence of iPrOAC (as anti-solvent) was stored at RT for 2 weeks before being subjected to thermal analysis. In this case, the majority of material from experiment RAS34 dried at RT on filter paper for 1-2 h, and after that the recovered material was analyzed by XRPD. […] The precipitate that formed into the TFE solution in the presence of EtOAc (as anti-solvent) was stored at RT for 2 weeks before being subjected to thermal analysis. In this case, the majority of material obtained from experiment RAS33 was dried at RT on filter paper for 1-2 h, and after that the recovered material was analyzed by XRPD. […] The precipitate that formed into the TFE solution in the presence of MTBE (as anti-solvent) was stored at RT for 2 weeks before being subjected to thermal analysis. In this case, the majority of the material obtained from experiment RAS36 that had been stored for 2 weeks was dried at RT on filter paper for 1-2 h, and after that the recovered material was analyzed by XRPD.

SMILES: C[C@H](CCC(=O)[O-])[C@H]1CC[C@H]2[C@@H]3[C@H](O)C[C@@H]4C[C@H](O)CC[C@]4(C)[C@H]3CC[C@]12C.[Na+] [Form A, sodium chenodeoxycholate]
- hygroscopicity by DVS [1]: hygroscopic
- weight change in the first sorption cycle (DVS) ([1]; 40% RH to 80% RH): 14.1%
- solid form after compression (XRPD) ([2]; 2 tons for 2 minutes): no change in solid form
- IDR (intrinsic dissolution rate) ([2]; USP phosphate buffer pH 7.4, 37° C., 100 rpm, disk 0.5024 cm^2): 0.6959 mg · min^−1 · cm^−2
- effect of exposure to moist air (XRPD) [3]: partial amorphization and loss of crystallinity

SMILES: C[C@H](CCC(=O)[O-])[C@H]1CC[C@H]2[C@@H]3[C@H](O)C[C@@H]4C[C@H](O)CC[C@]4(C)[C@H]3CC[C@]12C.[Na+] [Form S1, sodium chenodeoxycholate]
- XRPD form after storage ([4]; ASDS03 precipitate in water/acetone, stored at RT up to 3 weeks, dried on filter paper): transformed into Form S14
- XRPD form after storage ([4]; RAS11 precipitate in water/acetone, stored at RT for 2 weeks): high tendency of amorphization

SMILES: C[C@H](CCC(=O)[O-])[C@H]1CC[C@H]2[C@@H]3[C@H](O)C[C@@H]4C[C@H](O)CC[C@]4(C)[C@H]3CC[C@]12C.[Na+] [Form S2, sodium chenodeoxycholate]
- form on storage ([4]; VDS05 material (EtOH vapor, 12 days, 50° C.), storage conditions at RT): remained stable

SMILES: C[C@H](CCC(=O)[O-])[C@H]1CC[C@H]2[C@@H]3[C@H](O)C[C@@H]4C[C@H](O)CC[C@]4(C)[C@H]3CC[C@]12C.[Na+] [Form S3, sodium chenodeoxycholate]
- XRPD form after storage ([4]; RAS34 precipitate in TFE/iPrOAc, stored at RT for 2 weeks): remained unchanged

SMILES: C[C@H](CCC(=O)[O-])[C@H]1CC[C@H]2[C@@H]3[C@H](O)C[C@@H]4C[C@H](O)CC[C@]4(C)[C@H]3CC[C@]12C.[Na+] [Form S6, sodium chenodeoxycholate]
- XRPD form after storage ([4]; RAS33 precipitate in TFE/EtOAc, stored at RT for 2 weeks): transformed into Form S1

SMILES: C[C@H](CCC(=O)[O-])[C@H]1CC[C@H]2[C@@H]3[C@H](O)C[C@@H]4C[C@H](O)CC[C@]4(C)[C@H]3CC[C@]12C.[Na+] [Form S8, sodium chenodeoxycholate]
- form on storage ([4]; VDS12 material (MEK vapor, 50° C.), mixture with NaCDC Form B, storage at RT): remained stable

SMILES: C[C@H](CCC(=O)[O-])[C@H]1CC[C@H]2[C@@H]3[C@H](O)C[C@@H]4C[C@H](O)CC[C@]4(C)[C@H]3CC[C@]12C.[Na+] [Form S9-a, sodium chenodeoxycholate]
- XRPD form after storage ([4]; ASDS04 precipitate in water/acetonitrile, stored at RT 22 days): remained unchanged

SMILES: C[C@H](CCC(=O)[O-])[C@H]1CC[C@H]2[C@@H]3[C@H](O)C[C@@H]4C[C@H](O)CC[C@]4(C)[C@H]3CC[C@]12C.[Na+] [Form S9-b, sodium chenodeoxycholate]
- XRPD form after storage ([4]; ASDS08 precipitate in water/acetonitrile, stored at RT 23 days): transformed into a form similar to Form S9-a

SMILES: C[C@H](CCC(=O)[O-])[C@H]1CC[C@H]2[C@@H]3[C@H](O)C[C@@H]4C[C@H](O)CC[C@]4(C)[C@H]3CC[C@]12C.[Na+] [Form S12, sodium chenodeoxycholate]
- XRPD form after storage ([4]; ASDS19 precipitate in TFE/MTBE, stored at RT for 22 days): transformed into Form S15

SMILES: C[C@H](CCC(=O)[O-])[C@H]1CC[C@H]2[C@@H]3[C@H](O)C[C@@H]4C[C@H](O)CC[C@]4(C)[C@H]3CC[C@]12C.[Na+] [Form S13, sodium chenodeoxycholate]
- XRPD form after storage ([4]; ASDS16 precipitate in TFE/DIPE, stored at RT for 22 days): remained unchanged

SMILES: C[C@H](CCC(=O)[O-])[C@H]1CC[C@H]2[C@@H]3[C@H](O)C[C@@H]4C[C@H](O)CC[C@]4(C)[C@H]3CC[C@]12C.[Na+] [Form S15, sodium chenodeoxycholate]
- XRPD form after storage ([4]; RAS36 precipitate in TFE/MTBE, stored at RT for 2 weeks): transformed into Form S14

From patent publication US20250206773A1, “FORMS AND COMPOSITIONS OF SODIUM CHENODEOXYCHOLATE” (Syntis Bio, Inc., priority 2022, published 2025)
